Test results as given in patent US10414759B2, “Phenylthiazoles and uses thereof” (Purdue Research Foundation, priority 2017, dated 2019).
Values after ≈ are worked out from the molar mass of the structure shown. Like-named read-outs stand apart in the source and are kept apart here.

What was measured:
MRSA (2658 RCMB) = test: MIC against MRSA (2658 RCMB), broth dilution; format: cell-based, Staphylococcus aureus; settings: for MIC: Staphylococcus aureus
Procedure: Bacteria were cultured in cation-adjusted Mueller Hinton broth in a 96-well plate. Compounds, using triplicate samples, were added to the plate and serially diluted. […] Plates were visually inspected and the MIC was categorized as the concentration at which no visible growth of bacteria was observed. The average of triplicate MIC determinations is reported.
A bacterial solution equivalent to 0.5 McFarland standard was prepared and diluted in cation-adjusted Mueller-Hinton broth (CAMHB) to achieve a bacterial concentration of about 5×10^5 CFU/mL and seeded in 96-well plates. Enterococcus faecium was diluted in brain heart infusion broth. Enterococcus faecalis, Streptococcus pneumonia and Listeria monocytogenes were diluted in tryptone soya broth (TSB).

[1] = Metabolic stability in human liver microsomes; format: in vitro ADME; settings: pH 7.4, human liver microsomes, with NADPH, read-out: NADPH-dependent CLint
Procedure: The tested compounds were incubated in duplicate with human liver microsomes at 37° C. The reaction contained microsomal protein in 100 mM potassium phosphate, 2 mM NADPH, 3 mM MgCl2, pH 7.4. A control was run for each test agent omitting NADPH to detect NADPH-free degradation. At 0, 10, 20, 40, and 60 minutes, an aliquot was removed from each experimental and control reaction and mixed with an equal volume of ice-cold Stop Solution (methanol containing haloperidol, diclofenac, or other internal standard). Stopped reactions are incubated at least ten minutes at −20° C., and an additional volume of water was added. The samples were centrifuged to remove precipitated protein, and the supernatants were analyzed by LC/MS/MS to quantitate the remaining parent. Data are converted to % remaining by dividing by the time zero concentration value. Data are fit to a first-order decay model to determine half-life. Intrinsic clearance is calculated from the half-life and the protein concentrations: CLint=ln(2)/(T1/2 [microsomal protein]).

[2] = Table 1, MRSA (2658 RCMB), read-out: MIC ± SD
[3] = Table 7, initial screening, MRSA (2658 RCMB), read-out: minimum inhibitory concentration (MIC)
[4] = Table 7, initial screening, MRSA (2658 RCMB)

Compound | melting point | MIC (MRSA (2658 RCMB); [2]) [µg/mL] | MIC (MRSA (2658 RCMB); [3]) [µg/mL] | also measured
CCCCc1ccc(-c2nc(C)c(C(=O)/C=C/N(C)C)s2)cc1 [Compound 4, (E)-1-[2-(4-Butylphenyl)-4-methylthiazol-5-yl]-3-(dimethyl-amino)prop-2-en-1-one] | 105.4 °C | > 25 |  | 
CCCCc1ccc(-c2nc(C)c(-c3ccnc(NC)n3)s2)cc1 [Compound 9, 4-[2-(4-Butylphenyl)-4-methylthiazol-5-yl]-N-methylpyrimidin-2-amine] | 227 °C (dec.) | > 25 |  | antibacterial (anti-MRSA) activity, in words (MRSA (2658 RCMB); Table 1): dramatically decreased the antibacterial activity
CCCCc1ccc(-c2nc(C)c(-c3ccnc(NC#N)n3)s2)cc1 [Compound 10, N-{4-[2-(4-Butylphenyl)-4-methylthiazol-5-yl]pyrimidin-2-yl}cyanamide] | 118 °C | 18.7 ± 2.3 (≈ 53.5 µM) |  | antibacterial (anti-MRSA) activity, in words (MRSA (2658 RCMB); Table 1): dramatically decreased the antibacterial activity
CCCCc1ccc(-c2nc(C)c(-c3ccnc(NC(N)=S)n3)s2)cc1 [Compound 12, 1-{4-[2-(4-Butylphenyl)-4-methylthiazol-5-yl]pyrimidin-2-yl}thiourea] | 212 °C (dec.) |  |  | MIC (MRSA (2658 RCMB); MRSA, read-out: MIC ± SD): > 25 µg/mL; antibacterial (anti-MRSA) activity, in words (MRSA (2658 RCMB); Table 1): complete abolishment of the anti-MRSA activity
CCCCc1ccc(-c2nc(C)c(-c3ccnc(-c4cccnc4)n3)s2)cc1 [Compound 13, 2-(4-Butylphenyl)-4-methyl-5-[2-(38yridine-3-yl)pyrimidin-4-yl]thiazole] |  |  |  | antibacterial (anti-MRSA) activity, in words (MRSA (2658 RCMB); Table 1): exhibited no antibacterial activity; MIC ± SD (MRSA (2658 RCMB); Table 1, MRSA (2658 RCMB)): 17.2 ± 0.4 µg/mL (≈ 44.5 µM)
CCCCc1ccc(-c2nc(C)c(-c3ccnc(-n4cccn4)n3)s2)cc1 [Compound 14, 2-(4-Butylphenyl)-5-[2-(1H-pyrazol-1-yl)pyrimidin-4-yl]-4-methylthiazole] | 163.7 °C | > 25 |  | antibacterial (anti-MRSA) activity, in words (MRSA (2658 RCMB); Table 1): exhibited no antibacterial activity
CCCCc1ccc(-c2nc(C)c(-c3ccnc(N4CCCC4)n3)s2)cc1 [Compound 15, 2-(4-Butylphenyl)-4-methyl-5-(2-(pyrrolidin-1-yl)pyrimidin-4-yl)thiazole] | 153.7 °C | > 25 |  | antibacterial (anti-MRSA) activity, in words (MRSA (2658 RCMB); Table 1): lacks any antibacterial activity
CCCCc1ccc(-c2nc(C)c(-c3ccn4ncnc4n3)s2)cc1 [Compound 16, 5-([1,2,4]Triazolo[1,5-a]pyrimidin-5-yl)-2-(4-butylphenyl)-4-methylthiazole] |  | > 25 |  | 
CCCCc1ccc(-c2nc(C)c(-c3ccnc(NC(=N)N)n3)s2)cc1 [Compound 18, 2-(4-Butylphenyl)-5-(2-guanidinylpyrimidin-4-yl)-4-methylthiazole] |  | 1.56 (≈ 4.26 µM) |  | MIC ± SD (MRSA (2658 RCMB); Table 1, MRSA (2658 RCMB)): 1.56 ± 0.10 µg/mL (≈ 4.26 µM)
CCCCc1ccc(-c2nc(C)c(-c3ccnc(N=C(N(C)C)N(C)C)n3)s2)cc1 [Compound 19, 2-{4-[42-(4-Butylphenyl)-4-methylthiazol-5-yl]pyrimidin-2-yl}-1,1,3,3-tetramethyl guanidine] |  |  |  | antibacterial (anti-MRSA) activity, in words (MRSA (2658 RCMB); Table 1): revealed no antibacterial efficacy; MIC ± SD (MRSA (2658 RCMB); Table 1, MRSA (2658 RCMB)): >25 µg/mL
Cc1nc(-c2ccc(I)cc2)sc1-c1ccnc(N)n1 [Compound 23, 4-[2-(4-Iodophenyl)-4-methylthiazol-5-yl]pyrimidin-2-amine] |  | > 25 |  | 
Cc1nc(-c2ccc(C3=CCC(C)C3)cc2)sc1-c1ccnc(N)n1 (stereo not drawn) [Compound 28, 4-{4-Methyl-2-[4-(4-methylcyclopent-1-en-1-yl)phenyl]thiazol-5-yl}pyrimidin-2-amine] | 141 °C | 3.8 ± 0.4 (≈ 10.9 µM) |  | 
Cc1nc(-c2ccc(C3=CCCCCC3)cc2)sc1-c1ccnc(N)n1 [Compound 30, 4-{2-[4-(Cyclohept-1-en-1-yl)phenyl]-4-methylthiazol-5-yl}pyrimidin-2-amine] | 164 °C | 3.12 (≈ 8.61 µM) |  | 
Cc1nc(-c2ccc(C3=CCCCCCC3)cc2)sc1-c1ccnc(N)n1 [Compound 31, 4-{2-[4-(Cyclooct-1-en-1-yl)phenyl]-4-methylthiazol-5-yl}pyrimidin-2-amine] | 188 °C | 5.6 ± 0.1 (≈ 14.9 µM) |  | 
Cc1nc(-c2ccc(C=C3CCCC3)cc2)sc1-c1ccnc(N)n1 [Compound 32, 4-{2-[4-(Cyclopentylidenemethyl)phenyl]-4-methylthiazol-5-yl}pyrimidin-2-amine] | 143 °C | 1.17 ± 0.19 (≈ 3.36 µM) |  | 
Cc1nc(-c2ccc(C=C3CCCCC3)cc2)sc1-c1ccnc(N)n1 [Compound 33, 4-{2-[4-(Cyclohexylidenemethyl)phenyl]-4-methylthiazol-5-yl}pyrimidin-2-amine] | 165 °C |  |  | MIC (MRSA (2658 RCMB); MRSA, read-out: MIC ± SD): 1.56 µg/mL (≈ 4.3 µM)
Cc1nc(-c2ccc(/C=C/C3CCCC3)cc2)sc1-c1ccnc(N)n1 [Compound 34, (E)-4-{2-[4-(2-Cyclopentylvinyl)phenyl]-4-methylthiazol-5-yl}pyrimidin-2-amine] | 180.7 °C | 3.12 (≈ 8.61 µM) |  | 

Compound | melting point | MIC (MRSA (2658 RCMB); [2]) [µg/mL] | MIC (MRSA (2658 RCMB); [3]) [µg/mL] | also measured
Cc1nc(-c2ccc(/C=C/C3CCCCC3)cc2)sc1-c1ccnc(N)n1 [Compound 35, (E)-4-{2-[4-(2-Cyclohexylvinyl)phenyl]-4-methylthiazol-5-yl}pyrimidin-2-amine] | 189 °C | 3.12 (≈ 8.29 µM) |  | 
Cc1nc(-c2ccc(C(C)(C)C)cc2)sc1-c1ccnc(N)n1 [Compound 40, 4-(2-(4-(tert-Butyl)phenyl)-4-methylthiazol-5-yl)pyrimidin-2-amine] |  |  | 6.25 (≈ 19.3 µM) | 
CNc1nccc(-c2sc(-c3ccc(C(C)(C)C)cc3)nc2C)n1 [Compound 41, 4-(2-(4-(tert-Butyl)phenyl)-4-methylthiazol-5-yl)-N-methylpyrimidin-2-amine] |  |  | 25 (≈ 73.9 µM) | 
Cc1nc(-c2ccc(C(C)(C)C)cc2)sc1-c1ccnc(N2CCCC2)n1 [Compound 42] |  |  |  | minimum inhibitory concentration (MIC) (MRSA (2658 RCMB); [4]): >50 µg/mL
Cc1nc(-c2ccc(C(C)(C)C)cc2)sc1-c1ccnc(-c2cccnc2)n1 [Compound 43, 2-(4-(tert-Butyl)phenyl)-4-methyl-5-(2-(pyridin-3-yl)pyrimidin-4-yl)thiazole] |  |  | > 50 | 
Cc1nc(-c2ccc(C(C)(C)C)cc2)sc1-c1ccnc(N(C)C)n1 [Compound 50, 4-(2-(4-(tert-Butyl)phenyl)-4-methylthiazol-5-yl)-N,N-dimethylpyrimidin-2-amine] |  |  | > 50 | 
Cc1nc(-c2ccc(C(C)(C)C)cc2)sc1-c1ccnc(N2CCC2)n1 [Compound 51, 5-(2-(Azetidin-1-yl)pyrimidin-4-yl)-2-(4-(tert-butyl)phenyl)-4-methylthiazole] |  |  | > 50 | 
Cc1nc(-c2ccc(C(C)(C)C)cc2)sc1-c1ccnc(N2CCOCC2)n1 [Compound 52, 4-(4-(2-(4-(tert-Butyl)phenyl)-4-methylthiazol-5-yl)pyrimidin-2-yl) morpholine] |  |  | 25 (≈ 63.4 µM) | 
Cc1nc(-c2ccc(C(C)(C)C)cc2)sc1-c1ccnc(N2CC(O)C2)n1 [Compound 53, 1-(4-(2-(4-(tert-Butyl)phenyl)-4-methylthiazol-5-yl)pyrimidin-2-yl)azetidin-3-ol] |  |  | 6.25 (≈ 16.4 µM) | 
Cc1nc(-c2ccc(C(C)(C)C)cc2)sc1-c1ccnc(NN)n1 [Compound 55, 2-(4-(tert-Butyl)phenyl)-5-(2-hydrazinylpyrimidin-4-yl)-4-methylthiazole] |  |  | 1.56 (≈ 4.6 µM) | 
Cc1nc(-c2ccc(C(C)(C)C)cc2)sc1-c1ccnc(NC(=N)N)n1 [Compound 56, 1-(4-(2-(4-(tert-Butyl)phenyl)-4-methylthiazol-5-yl)pyrimidin-2-yl)guanidine] |  |  | 1.56 (≈ 4.26 µM) | 
CNC(=N)Nc1nccc(-c2sc(-c3ccc(C(C)(C)C)cc3)nc2C)n1 [Compound 57, 1-(4-(2-(4-(tert-Butyl)phenyl)-4-methylthiazol-5-yl)pyrimidin-2-yl)-3-methylguanidine] |  |  | 1.56 (≈ 4.1 µM) | 
Cc1nc(-c2ccc(C(C)(C)C)cc2)sc1-c1ccnc(N=C(N(C)C)N(C)C)n1 [Compound 59, N-2-(4-(2-(4-(tert-Butyl)phenyl)-4-methylthiazol-5-yl)pyrimidin-2-yl)-1,1,3,3-tetramethylguanidine] |  |  |  | minimum inhibitory concentration (MIC) (MRSA (2658 RCMB); [4]): >50 µg/mL
Cc1nc(-c2ccc(C(C)(C)C)cc2)sc1-c1ccnc(NC(=N)N2CCCC2)n1 [Compound 60, N-(4-(2-(4-(tert-Butyl)phenyl)-4-methylthiazol-5-yl)pyrimidin-2-yl) pyrrolidine-1-carboximidamide] |  |  | 50 (≈ 119 µM) | 
Cc1nc(-c2ccc(C(C)(C)C)cc2)sc1-c1ccnc(NC(=N)N2CCN(C)CC2)n1 [Compound 62, N-(4-(2-(4-(tert-Butyl)phenyl)-4-methylthiazol-5-yl)pyrimidin-2-yl)-4-methylpiperazine-1-carboximidamide] |  |  | 3.12 (≈ 6.94 µM) | 
CC(=O)CC(c1ccccc1)c1c(O)c2ccccc2oc1=O (stereo not drawn) [Warfarin, warfarin, reference compound] |  |  |  | microsomal CLint [1]: 0.3 µL/min/mg
